Source: patent US8324248B2, “Piperidine derivatives as NK3 receptor antagonists” (Hoffmann-La Roche Inc., priority 2009, dated 2012)

Target: T1, recombinant human NK3 receptor (Homo sapiens, UniProt P29371)
T1 construct: expressed in transfected cells; host or cells: HEK293 cells (transient expression), membranes
T1 sequence (P29371 1-465): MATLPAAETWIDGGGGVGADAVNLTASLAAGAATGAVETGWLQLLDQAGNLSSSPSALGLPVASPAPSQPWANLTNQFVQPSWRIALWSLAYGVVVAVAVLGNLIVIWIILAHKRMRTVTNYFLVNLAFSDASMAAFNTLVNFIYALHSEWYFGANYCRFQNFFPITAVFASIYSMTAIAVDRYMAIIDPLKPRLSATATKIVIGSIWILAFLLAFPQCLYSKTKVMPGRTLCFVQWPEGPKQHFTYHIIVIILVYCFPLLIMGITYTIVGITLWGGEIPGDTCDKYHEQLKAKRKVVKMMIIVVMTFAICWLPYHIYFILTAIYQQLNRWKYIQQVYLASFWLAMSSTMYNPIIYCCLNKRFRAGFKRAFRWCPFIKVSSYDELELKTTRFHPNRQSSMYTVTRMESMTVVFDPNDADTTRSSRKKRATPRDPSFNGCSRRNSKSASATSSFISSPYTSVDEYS
Experiment: [3H]SR142801 competition binding assay, hNK3 receptor binding
Conditions: [3H]SR142801 displacement; membranes from HEK293 cells transiently expressing recombinant human NK3 receptor; Ki by Cheng-Prussoff from IC50
Description: The compounds were investigated in accordance with the tests given hereinafter. [^3H]SR142801 competition binding assay hNK3 receptor binding experiment were performed using [^3H]SR142801 (Catalog No. TRK1035, specific activity: 74.0 Ci/mmol, Amersham, GE Healthcare UK limited, Buckinghamshire, UK) and membrane isolated from HEK293 cells transiently expressing recombinant human NK3 receptor. After thawing, the membrane homogenates were centrifuged at 48,000×g for 10 min at 4° C., the pellets were resuspended in the 50 mM Tris-HCl, 4 mM MnCl2, 1 μM phosphoramidon, 0.1% BSA binding buffer at pH 7.4 to a final assay concentration of 5 μg protein/well. For inhibition experiments, membranes were incubated with [^3H]SR142801 at a concentration equal to KD value of radioligand and 10 concentrations of the inhibitory compound (0.0003-10 μM) (in a total reaction volume of 500 μl) for 75 min at room temperature (RT). At the end of the incubation, membranes were filtered onto unitfilter (96-well white microplate with bonded GF/C filter preincubated 1 h in 0.3% PEI+0.3% BSA, Packard BioScience, Meriden, Conn.) with a Filtermate 196 harvester (Packard BioScience) and washed 4 times with ice-cold 50 mM Tris-HCl, pH 7.4 buffer. Nonspecific binding was measured in the presence of 10 μM SB222200 for both radioligands. The radioactivity on the filter was counted (5 min) on a Packard Top-count microplate scintillation counter with quenching correction after addition of 45 μl of microscint 40 (Can berra Packard S. A., Zürich, Switzerland) and shaking for 1 h. Inhibition curves were fitted according to the Hill equation: y=100/(1+(x/IC50)^nH), where nH=slope factor using Excel-fit 4 software (Microsoft). IC50 values were derived from the inhibition curve and the affinity constant (Ki) values were calculated using the Cheng-Prussoff equation Ki=IC50/(1+[L]/KD) where [L] is the concentration of radioligand and KD is its dissociation constant at the receptor, derived from the saturation isotherm. All experiments were performed in duplicate and the mean±standard error (SEM) of the individual Ki values was calculated.

Row | Structure (SMILES) | Ki [nM]
1 | C[C@H](Oc1ccc(Cl)cn1)[C@H]1CCN(C(=O)C2CCN(C(=O)C3(C)CC3)CC2)C[C@@H]1c1ccc(Cl)cc1 (racemic) [Example 5, (4-{(3SR, 4SR)-3-(4-Chloro-phenyl)-4-[(SR)-1-(5-chloro-pyridin-2-yloxy)-ethyl]-piperidine-1-carbonyl}-piperidin-1-yl)-(1-methyl-cyclopropyl)-methanone] | 4.1
2 | C[C@H](Oc1ccc(Cl)cn1)[C@H]1CCN(C(=O)C2CCN(C(=O)C3(C)CC3)CC2)C[C@@H]1c1ccc(Cl)cc1 (stereo in doubt) [Example 7, (4-{(3S,4S)-3-(4-Chloro-phenyl)-4-[(S)-1-(5-chloro-pyridin-2-yloxy)-ethyl]-piperidine-1-carbonyl}-piperidin-1-yl)-(1-methyl-cyclopropyl)-methanone] | 2.6
3 | Cc1cc(C(=O)N2CC[C@H]([C@H](C)Oc3ccc(Cl)cn3)[C@@H](c3ccc(Cl)cc3)C2)cnn1 [Example 10, {(3S,4S)-3-(4-Chloro-phenyl)-4-[(S)-1-(5-chloro-pyridin-2-yloxy)-ethyl]-piperidin-1-yl}-(6-methyl-pyridazin-4-yl)-methanone] | 3.6
4 | Cc1noc(-c2ccc(C(=O)N3CC[C@H]([C@H](C)Oc4ccc(Cl)cn4)[C@@H](c4ccc(Cl)cc4)C3)cc2)n1 [Example 11, {(3S,4S)-3-(4-Chloro-phenyl)-4-[(S)-1-(5-chloro-pyridin-2-yloxy)-ethyl]-piperidin-1-yl}-[4-(3-methyl-[1,2,4]oxadiazol-5-yl)-phenyl]-methanone] | 1.8
5 | Cc1nc(-c2ccc(C(=O)N3CC[C@H]([C@H](C)Oc4ccc(Cl)cn4)[C@@H](c4ccc(Cl)cc4)C3)cc2)no1 [Example 12, {(3S,4S)-3-(4-Chloro-phenyl)-4-[(S)-1-(5-chloro-pyridin-2-yloxy)-ethyl]-piperidin-1-yl}-[4-(5-methyl-[1,2,4]oxadiazol-3-yl)-phenyl]-methanone] | 2.3
6 | C[C@H](Oc1ccc(Cl)cn1)[C@H]1CCN(C(=O)C2CCN(c3ccc(C#N)cn3)CC2)C[C@@H]1c1ccc(Cl)cc1 [Example 13, 4-{(3S,4S)-3-(4-Chloro-phenyl)-4-[(S)-1-(5-chloro-pyridin-2-yloxy)-ethyl]-piperidine-1-carbonyl}-3,4,5,6-tetrahydro-2H-[1,2′]bipyridinyl-5′-carbonitrile] | 0.3
7 | C[C@H](Oc1ccc(Cl)cn1)[C@H]1CCN(C(=O)N2CCN(S(C)(=O)=O)CC2)C[C@@H]1c1ccc(Cl)cc1 [Example 14, {(3S,4S)-3-(4-Chloro-phenyl)-4-[(S)-1-(5-chloro-pyridin-2-yloxy)-ethyl]-piperidin-1-yl}-(4-methanesulfonyl-piperazin-1-yl)-methanone] | 2.6
8 | C[C@H](Oc1ccc(C(F)(F)F)cn1)[C@H]1CCN(C(=O)C2CCN(C(=O)C3(C)CC3)CC2)C[C@@H]1c1ccc(Cl)cc1 [Example 16, (4-{(3S,4S)-3-(4-Chloro-phenyl)-4-[(S)-1-(5-trifluoromethyl-pyridin-2-yloxy)-ethyl]-piperidine-1-carbonyl}-piperidin-1-yl)-(1-methyl-cyclopropyl)-methanone] | 1.6
9 | Cc1cc(C(=O)N2CC[C@H]([C@H](C)Oc3ccc(C(F)(F)F)cn3)[C@@H](c3ccc(Cl)cc3)C2)cnn1 [Example 17, {(3S,4S)-3-(4-Chloro-phenyl)-4-[(S)-1-(5-trifluoromethyl-pyridin-2-yloxy)-ethyl]-piperidin-1-yl}-(6-methyl-pyridazin-4-yl)-methanone] | 5.6
10 | Cc1noc(-c2ccc(C(=O)N3CC[C@H]([C@H](C)Oc4ccc(C(F)(F)F)cn4)[C@@H](c4ccc(Cl)cc4)C3)cc2)n1 [Example 18, {(3S,4S)-3-(4-Chloro-phenyl)-4-[(S)-1-(5-trifluoromethyl-pyridin-2-yloxy)-ethyl]-piperidin-1-yl}-[4-(3-methyl-[1,2,4]oxadiazol-5-yl)-phenyl]-methanone] | 1.2
11 | Cc1nc(-c2ccc(C(=O)N3CC[C@H]([C@H](C)Oc4ccc(C(F)(F)F)cn4)[C@@H](c4ccc(Cl)cc4)C3)cc2)no1 [Example 19, {(3S,4S)-3-(4-Chloro-phenyl)-4-[(S)-1-(5-trifluoromethyl-pyridin-2-yloxy)-ethyl]-piperidin-1-yl}-[4-(5-methyl-[1,2,4]oxadiazol-3-yl)-phenyl]-methanone] | 1.4

Continued, values first:

Row | Ki [nM] | Structure (SMILES)
12 | 1.4 | CC(Nc1ccc(C#N)cn1)[C@H]1CCN(C(=O)C2CCN(c3ccc(C#N)cn3)CC2)C[C@@H]1c1ccc(Cl)cc1 (mixture of isomers) [Example 68, 4-{(3S,4S)-3-(4-Chloro-phenyl)-4-[(SR)-1-(5-cyano-pyridin-2-ylamino)-ethyl]-piperidine-1-carbonyl}-3,4,5,6-tetrahydro-2H-[1,2′]bipyridinyl-5′-carbonitrile]
13 | 8.3 | Cc1noc(-c2ccc(C(=O)N3CC[C@H](COc4ccc(Cl)cn4)[C@@H](c4ccc(F)c(F)c4)C3)cc2)n1 (racemic) [Example 31, [(3SR,4SR)-4-(5-Chloro-pyridin-2-yloxymethyl)-3-(3,4-difluoro-phenyl)-piperidin-1-yl]-[4-(3-methyl-[1,2,4]oxadiazol-5-yl)-phenyl]-methanone]
14 | 5.8 | CC1(C(=O)N2CCC(C(=O)N3CC[C@H](COc4ccc(Cl)cn4)[C@@H](c4ccc(F)c(F)c4)C3)CC2)CC1 (racemic) [Example 32, {4-[(3SR,4SR)-4-(5-Chloro-pyridin-2-yloxymethyl)-3-(3,4-difluoro-phenyl)-piperidine-1-carbonyl]-piperidin-1-yl}-(1-methyl-cyclopropyl)-methanone]
15 | 1.3 | N#Cc1ccc(N2CCC(C(=O)N3CC[C@H](COc4ccc(Cl)cn4)[C@@H](c4ccc(F)c(F)c4)C3)CC2)nc1 (relative stereo) [Example 33]
16 | 0.2 | C[C@H](Oc1ccc(C(F)(F)F)cn1)[C@H]1CCN(C(=O)C2CCN(c3ccc(C#N)cn3)CC2)C[C@@H]1c1ccc(Cl)cc1 [Example 20, 4-{(3S,4S)-3-(4-Chloro-phenyl)-4-[(S)-1-(5-trifluoromethyl-pyridin-2-yloxy)-ethyl]-piperidine-1-carbonyl}-3,4,5,6-tetrahydro-2H-[1,2′]bipyridinyl-5′-carbonitrile]
17 | 4.7 | C[C@H](Oc1ccc(C(F)(F)F)cn1)[C@H]1CCN(C(=O)N2CCN(S(C)(=O)=O)CC2)C[C@@H]1c1ccc(Cl)cc1 [Example 21, {(3S,4S)-3-(4-Chloro-phenyl)-4-[(S)-1-(5-trifluoromethyl-pyridin-2-yloxy)-ethyl]-piperidin-1-yl}-(4-methanesulfonyl-piperazin-1-yl)-methanone]
18 | 1.1 | C[C@H](Oc1ccc(C#N)cn1)[C@H]1CCN(C(=O)C2CCN(C(=O)C3(C)CC3)CC2)C[C@@H]1c1ccc(Cl)cc1 [Example 23, 6-((S)-1-{(3S,4S)-3-(4-Chloro-phenyl)-1-[1-(1-methyl-cyclopropanecarbonyl)-piperidine-4-carbonyl]-piperidin-4-yl}-ethoxy)-nicotinonitrile]
19 | 8.7 | Cc1cc(C(=O)N2CC[C@H]([C@H](C)Oc3ccc(C#N)cn3)[C@@H](c3ccc(Cl)cc3)C2)cnn1 [Example 24, 6-{(S)-1-[(3S,4S)-3-(4-Chloro-phenyl)-1-(6-methyl-pyridazine-4-carbonyl)-piperidin-4-yl]-ethoxy}-nicotinonitrile]
20 | 1.5 | Cc1noc(-c2ccc(C(=O)N3CC[C@H]([C@H](C)Oc4ccc(C#N)cn4)[C@@H](c4ccc(Cl)cc4)C3)cc2)n1 [Example 25, 6-((S)-1-{(3S,4S)-3-(4-Chloro-phenyl)-1-[4-(3-methyl-[1,2,4]oxadiazol-5-yl)-benzoyl]-piperidin-4-yl}-ethoxy)-nicotinonitrile]
21 | 5.1 | Cc1nc(-c2ccc(C(=O)N3CC[C@H]([C@H](C)Oc4ccc(C#N)cn4)[C@@H](c4ccc(Cl)cc4)C3)cc2)no1 [Example 26, 6-((S)-1-{(3S,4S)-3-(4-Chloro-phenyl)-1-[4-(5-methyl-[1,2,4]oxadiazol-3-yl)-benzoyl]-piperidin-4-yl}-ethoxy)-nicotinonitrile]
